Measured values taken from PubChem BioAssay AID2387 (Broad Institute, 2010).
“And” between values parts separate entries of the source, which are not always exact repeats. Equal values may be shown once. The source made the active and inactive calls.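 The calls were made as follows: active = fitted EC50 no more than tenfold above the highest tested concentration; inconclusive = flat fit with 30 to 70% signal loss, or poor fit; inactive = the rest.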

Tested on: Candida albicans CaCi-2 growth (no fluconazole), Alamar Blue
Test: intrinsic antifungal toxicity in Candida, azole-free – CaCi-2 strain, Alamar Blue fluorescence, counter-screen for fluconazole resistance reversal project, dose response (AID 2387)
Conditions: C. albicans CaCi-2 (fluconazole-resistant clinical isolate) growth without fluconazole, 48 h

Row | Compound | EC50
1 | CCCCC(=O)NC(c1ccco1)c1cc(Cl)c2cccnc2c1O (stereo not drawn) | 10.5 µM
2 | CC(C)Cc1nc2oc3c(=O)[nH]cnc3c2c2c1CCCC2 | > 15 µM (inactive)
3 | CCCCC(=O)NC(c1ccc(N(CC)CC)cc1)c1ccc2cccnc2c1O (stereo not drawn) | 8.6 µM
4 | CCC(C)c1ccc(O)c(NC(=S)NC(=O)c2cccnc2)c1 (stereo not drawn) | > 15 µM (inactive)
5 | O=Cc1ccc(O)c2ncccc12 | 6.24 µM
6 | CN1CCN(C(c2ccc(C(F)(F)F)cc2)c2ccc3cccnc3c2O)CC1 (stereo not drawn) | 8.31 µM
7 | Clc1ccccc1C(c1ccccc1)(c1ccccc1)n1ccnc1 | 1.58 µM
8 | Cc1ccc(-c2nc3c(Cl)cc(Cl)cc3c(=O)n2O)cc1 | 11.5 µM
9 | CCc1ccc2c(c1)/C(=C/C(=O)c1cccs1)C(=O)N2 | > 15 µM (inactive)
10 | CC1(O)CC(c2ccc(Cl)cc2)=NN1C(=O)c1ccc([N+](=O)[O-])cc1 (stereo not drawn) | > 16 µM (inactive)
11 | Cc1cc(NC(c2ccc(Cl)cc2)c2ccc3cccnc3c2O)no1 (stereo not drawn) | 3.53 µM
12 | O=C(c1ccc(Cl)cc1)N1CCN(c2ccnc3cc(Cl)ccc23)CC1 | > 15 µM (inactive)
13 | Cc1nnc(NC(=O)CSc2ncnc3c2cnn3-c2ccccc2C)s1 | > 15 µM (inactive)
14 | COc1ccccc1OCC(=O)N/N=C/C=C/c1ccc([N+](=O)[O-])o1 | > 16 µM (inactive)
15 | C=CCNC(=S)N/N=C(\C)c1ccccn1 | 4.96 µM
16 | Nc1[nH]c(=O)ncc1F | > 16 µM (inactive)
17 | O=C(N/N=C/c1c(O)ccc2ccccc12)c1cccc(C(F)(F)F)c1 | 1.42 µM
18 | Cc1cccc(/C=C/C(=O)c2cc(Br)ccc(=O)c2O)c1 | 14.5 µM
19 | c1ccc2c(c1)CCN(c1ncnc3c1[nH]c1ccccc13)C2 | > 15 µM (inactive)
20 | CCCC(=O)NC(c1ccc(C(C)C)cc1)c1ccc2cccnc2c1O (stereo not drawn) | 11.1 µM
21 | CCC(C)n1cnc2c(c1=O)c1nc3ccccc3nc1n2Cc1ccc(OC)cc1 (stereo not drawn) | > 16 µM (inactive)
22 | CCOc1ccc(NC(=S)NNC(=O)c2ccc(Br)cc2)cc1 | > 16 µM (inactive)
23 | CCOc1ccccc1NC(=O)C(=O)N/N=C/c1cc(Br)ccc1O | > 16 µM (inactive)
24 | Cc1nn(-c2ccccc2)c(Cl)c1/C=C/C(=O)c1ccc(O)cc1 | > 16 µM (inactive)
25 | Cc1ccc(C)c(NC(=S)NNC(=O)c2csc(C(C)C)c2)c1 | > 16 µM (inactive)
26 | Cc1cc(O)ccc1NC(=S)NC(=O)c1cncc(Br)c1 | > 16 µM (inactive)

Row | Compound | EC50
27 | CCNc1nc(N)nc(-c2cc(Cl)ccc2O)n1 | > 15 µM (inactive)
28 | Cc1cc(N/N=C/c2c(O)ccc3ccccc23)nc(-c2ccccc2O)n1 | > 16 µM (inactive)
29 | CCCOc1ccc(C(=O)NNC(=S)NC(=O)CC)cc1 | > 15 µM (inactive)
30 | CCN(CC)S(=O)(=O)c1ccc(N/N=C/c2ccc(O)cc2O)nc1 | > 16 µM (inactive)
31 | CCC(=O)NC(c1ccc(OC)cc1)c1cc(Cl)c2cccnc2c1O (stereo not drawn) | > 16 µM (inactive)
32 | Cc1ccc(C)c(-c2nnc(NC(=O)c3ccco3)o2)c1 | > 16 µM (inactive)
33 | O=C(CCc1ccccc1)NNC(=S)NC(=O)c1ccccc1 | > 15 µM (inactive)
34 | C[C@@H]1C[C@@H]2O[C@H]2/C=C\C=C\C(=O)Cc2c(Cl)c(O)cc(O)c2C(=O)O1 | > 16 µM (inactive)
35 | CCOc1ccc(/C=C/C2=CC(C)(C)NC(=S)N2)cc1 | > 15 µM (inactive)
36 | COc1cccc(/C=N/NC(=O)c2c(C)nc3ccc(Br)cn23)c1O | > 16 µM (inactive)
37 | CN1/C(=C/C(=O)c2cccs2)Sc2ccccc21 | > 15 µM (inactive)
38 | CCN(CC)c1ccc2cc(S(=O)(=O)c3ccc(C)cc3)c(=O)oc2c1 | > 16 µM (inactive)
39 | CN(C)c1cc(N/N=C/c2ccc(Cl)cc2)nc(N(C)C)n1 | > 16 µM (inactive)
40 | CCCCCCOC(=O)C[N+](C)(C)CCOC1CC2CCC1(C)C2(C)C (stereo not drawn) | > 16 µM (inactive)
41 | O=C(Cc1ccc(Cl)cc1)NNC(=S)NC(=O)c1cccs1 | > 16 µM (inactive)
42 | CCN(CC)S(=O)(=O)c1cc(OC)ccc1N=Nc1ccc(O)c2ncccc12 | 6.91 µM
43 | Cc1ccc(NC2=CC(=O)C(=O)c3ccccc32)cc1 | > 15 µM (inactive)
44 | COc1ccc(-c2nnc(NC(=O)c3cc(Cl)ccc3Cl)o2)cc1 | > 15 µM (inactive)
45 | COc1ccc(-n2cc(-c3ccc(C)cc3)[n+]3c2SCC3)cc1 | > 15 µM (inactive)
46 | CN1CCN(C(c2ccc(C(F)(F)F)cc2)c2cc(Cl)c3cccnc3c2O)CC1 (stereo not drawn) | 2.45 µM
47 | C/C(=N\NC(=O)c1cc2ccccc2cc1O)c1ccccn1 | 9.98 µM
48 | Cc1cc(C(=O)N/N=C/c2cc(Cl)cc([N+](=O)[O-])c2O)c2ccccc2n1 | > 15 µM (inactive)
49 | O=C(N/N=C/c1sc2ccccc2c1O)c1cccc2ccccc12 | > 16 µM (inactive)
50 | c1ccc(CC2CCN(c3ncnc4sccc34)CC2)cc1 | > 16 µM (inactive)
51 | O=C(NCc1cc([N+](=O)[O-])ccc1O)c1cccnc1Sc1ccccc1Cl | > 15 µM (inactive)
52 | COc1cccc(/C=N/Nc2ncnc3scc(-c4ccccc4)c23)c1O | 6.58 µM

Row | Compound | EC50
53 | Fc1cccc(-n2cc(-c3ccccc3)c3c(=S)nc[nH]c32)c1 | > 15 µM (inactive)
54 | O=C(Oc1c(CN2CCOCC2)cc(Cl)c2cccnc12)c1ccc(F)cc1 | > 16 µM (inactive)
55 | CCN1/C(=C/C=C/c2oc3ccc(-c4ccccc4)cc3[n+]2CC)Oc2ccc(-c3ccccc3)cc21 | 6.54 µM
56 | CCSc1nnc(-c2ccc(C)cc2)c2ccccc12 | > 15 µM (inactive)
57 | COc1ccccc1NC1=C(N2CCCCC2)C(=O)c2ccccc2C1=O | > 16 µM (inactive)
58 | COc1ccc(-c2nnc(NC(=O)c3ccc(F)cc3)o2)cc1 | > 15 µM (inactive)
59 | O=C(N/N=C/c1cc([N+](=O)[O-])ccc1O)c1ccc(COc2ccc3c(c2)CCC3)o1 | 12.3 µM
60 | O=C(Nc1nc(-c2ccccn2)cs1)c1ccc(Br)s1 | 10.2 µM
61 | O=C(Nc1nnc(C2COc3ccccc3O2)o1)c1ccc(F)cc1 (stereo not drawn) | > 15 µM (inactive)
62 | O=C(O)c1ccccc1-c1ccccc1C(=O)Nc1cccc(-c2nc3ccccc3o2)c1 | > 15 µM (inactive)
63 | Cc1ccc2nc(N3C(=O)C(O)=C(C(=O)c4ccco4)C3c3ccc(C)o3)sc2c1 (stereo not drawn) | > 15 µM (inactive)
64 | CCCCC(=O)NC(c1ccccc1)c1ccc2cccnc2c1O (stereo not drawn) | > 15 µM (inactive)
65 | C=CCn1c(N)nc2ccccc21 | > 16 µM (inactive)
66 | COc1ccc(C(=O)NC(=S)NNC(=O)c2ccc(C)cc2)cc1 | > 15 µM (inactive)
67 | Clc1ccc(CONc2ncnc3nonc23)c(Cl)c1 | > 16 µM (inactive)
68 | Cc1ccc(NC(=O)c2sc3nc(N)c(C#N)cc3c2N)cc1 | > 15 µM (inactive)
69 | C[n+]1c2n(c3ccccc31)N=C(c1ccc(-c3ccccc3)cc1)CS2 | > 16 µM (inactive)
70 | Cc1ccc(C(=O)c2coc3c2C(=O)C(=O)c2ccccc2-3)cc1 | 10.7 µM
71 | CCc1nnc(NC(=O)CSc2nc(SC)ns2)s1 | > 16 µM (inactive)
72 | Cc1cc(Nc2ccccc2)nc(NCc2ccccc2)n1 | > 15 µM (inactive)
73 | O=C(NNC1=C(C(=O)C(F)(F)F)CCC1)c1cccc(Cl)c1 | > 16 µM (inactive)
74 | CCc1cc(C(=O)NNC(=S)Nc2cc(C)ccc2C)cs1 | > 15 µM (inactive)
75 | CC(=O)NC1CCCN(O)C(=O)/C=C(\C)CCOC(=O)C(NC(C)=O)CCCN(O)C(=O)/C=C(\C)CCOC(=O)C(NC(C)=O)CCCN(O)C(=O)/C=C(\C)CCOC1=O (stereo not drawn) | 2.05 µM
76 | O=C(Nc1nnc(-c2ccco2)o1)c1cccc(Cl)c1 | > 15 µM (inactive)
77 | COc1ccc(C)cc1N=Nc1ccc(O)c2ncccc12 | 2.77 µM
78 | N/C(Cc1ccc(Cl)c(Cl)c1)=N\OC(=O)c1cccs1 | > 16 µM (inactive)

Row | Compound | EC50
79 | Cc1cc(C)cc(OCC(=O)NNC(=S)NC(=O)C2CC2)c1 | > 15 µM (inactive)
80 | CCOc1ccc(NC(=O)c2cn(-c3ccc(OCC)cc3)c(=O)c3cc(OC)c(OC)cc23)cc1 | > 16 µM (inactive)
81 | CCCCC(=O)NC(c1ccc(Cl)cc1)c1ccc2cccnc2c1O (stereo not drawn) | 9.92 µM
82 | CCOc1ccc(N=Nc2ccc(O)c3ncccc23)cc1 | 2.3 µM
83 | O=C(CCS(=O)(=O)c1ccc(Cl)cc1)Nc1nc(-c2ccncc2)cs1 | > 15 µM (inactive)
84 | CCc1cc(-c2n[nH]c(=S)n2-c2ccccc2C)cs1 | > 16 µM (inactive)
85 | Cc1ccc(C(=O)Nc2cccc(-c3cn4ccccc4n3)c2)cc1 | > 16 µM (inactive)
86 | CCNC(=S)NNC(=O)c1cc(-c2cc(C)ccc2C)nc2ccccc12 | > 15 µM (inactive)
87 | NC(=NCCCCCCN=C(N)/N=C(\N)Nc1ccc(Cl)cc1)/N=C(\N)Nc1ccc(Cl)cc1 | > 16 µM (inactive) and > 15 µM (inactive)
88 | O=[N+]([O-])c1ccc(O)c(P(=O)(c2ccccc2)c2ccccc2)c1 | > 15 µM (inactive)
89 | CC(C)C(=O)NC(c1cccs1)c1cc([N+](=O)[O-])c2cccnc2c1O (stereo not drawn) | 12.9 µM
90 | CC(=O)NC(c1ccc(C)cc1)c1cc([N+](=O)[O-])c2cccnc2c1O (stereo not drawn) | > 16 µM (inactive)
91 | O=C(Oc1c(Cl)cc(Cl)c2cccnc12)c1cccs1 | 1.41 µM
92 | Oc1c(C(Nc2nccs2)c2ccc(C(F)(F)F)cc2)ccc2cccnc12 (stereo not drawn) | 4.35 µM
93 | O=[N+]([O-])c1c(C(Cl)Cl)nn(-c2ccc(Cl)cc2)c1N1CCCCC1 | > 16 µM (inactive)
94 | O=C(/C(=N/N=C/c1ccc(O)c(O)c1O)c1ccccc1)c1ccccc1 | > 15 µM (inactive)
95 | CCCC(=O)NC(c1ccccc1OC)c1ccc2cccnc2c1O (stereo not drawn) | > 16 µM (inactive)
96 | CCCCCCC[n+]1ccc(-c2cc[n+](CCCCCCC)cc2)cc1 | 1.68 µM
97 | COC(=O)c1ccc(COc2ccc(/C=C(\C#N)c3nc4ccccc4[nH]3)cc2OC)o1 | > 16 µM (inactive)
98 | CCc1ccc(C2c3[nH]c4ccccc4c3CCN2C(=O)c2ccc(=O)n(C)n2)cc1 (stereo not drawn) | > 16 µM (inactive)
99 | Cc1ccc(C)c(S(=O)(=O)N2CCN(Cc3ccc(O)c4ncccc34)CC2)c1 | > 16 µM (inactive)
100 | O=C1/C(=C/c2cccnc2)CCc2c1[nH]c1ccccc21 | > 15 µM (inactive)
101 | O=C(Nc1nnc(CCc2ccccc2)s1)c1ccco1 | > 15 µM (inactive)
102 | CCN(Cc1ccccc1)S(=O)(=O)c1ccc(C(=O)Nc2nnc(-c3ccccc3OC)o2)cc1 | > 15 µM (inactive)
103 | O=C(c1cc2c(s1)CCCCC2)N1CCN(c2ncccn2)CC1 | > 16 µM (inactive)
